The term IC50 denotes the point on the concentration scale where inhibition reaches its midpoint. Lower therefore signals higher potency.

For 1 compound, IC50 results are on record in article PMC8533363, “Effective Perturbations on the Amplitude and Hysteresis of Erg-Mediated Potassium Current Caused by 1-Octylnonyl 8-[(2-hydroxyethyl)[6-oxo-6(undecyloxy)hexyl]amino]-octanoate (SM-102), a Cationic Lipid” (Biomedicines, 2021).

This series concerns the target T1, erg-mediated K+ (Kerg, KV11) channel (Rattus norvegicus, UniProt O08962).
T1 construct: gene Kcnh2; native channel in GH3 pituitary tumor cells
T1 sequence (O08962 1-1163): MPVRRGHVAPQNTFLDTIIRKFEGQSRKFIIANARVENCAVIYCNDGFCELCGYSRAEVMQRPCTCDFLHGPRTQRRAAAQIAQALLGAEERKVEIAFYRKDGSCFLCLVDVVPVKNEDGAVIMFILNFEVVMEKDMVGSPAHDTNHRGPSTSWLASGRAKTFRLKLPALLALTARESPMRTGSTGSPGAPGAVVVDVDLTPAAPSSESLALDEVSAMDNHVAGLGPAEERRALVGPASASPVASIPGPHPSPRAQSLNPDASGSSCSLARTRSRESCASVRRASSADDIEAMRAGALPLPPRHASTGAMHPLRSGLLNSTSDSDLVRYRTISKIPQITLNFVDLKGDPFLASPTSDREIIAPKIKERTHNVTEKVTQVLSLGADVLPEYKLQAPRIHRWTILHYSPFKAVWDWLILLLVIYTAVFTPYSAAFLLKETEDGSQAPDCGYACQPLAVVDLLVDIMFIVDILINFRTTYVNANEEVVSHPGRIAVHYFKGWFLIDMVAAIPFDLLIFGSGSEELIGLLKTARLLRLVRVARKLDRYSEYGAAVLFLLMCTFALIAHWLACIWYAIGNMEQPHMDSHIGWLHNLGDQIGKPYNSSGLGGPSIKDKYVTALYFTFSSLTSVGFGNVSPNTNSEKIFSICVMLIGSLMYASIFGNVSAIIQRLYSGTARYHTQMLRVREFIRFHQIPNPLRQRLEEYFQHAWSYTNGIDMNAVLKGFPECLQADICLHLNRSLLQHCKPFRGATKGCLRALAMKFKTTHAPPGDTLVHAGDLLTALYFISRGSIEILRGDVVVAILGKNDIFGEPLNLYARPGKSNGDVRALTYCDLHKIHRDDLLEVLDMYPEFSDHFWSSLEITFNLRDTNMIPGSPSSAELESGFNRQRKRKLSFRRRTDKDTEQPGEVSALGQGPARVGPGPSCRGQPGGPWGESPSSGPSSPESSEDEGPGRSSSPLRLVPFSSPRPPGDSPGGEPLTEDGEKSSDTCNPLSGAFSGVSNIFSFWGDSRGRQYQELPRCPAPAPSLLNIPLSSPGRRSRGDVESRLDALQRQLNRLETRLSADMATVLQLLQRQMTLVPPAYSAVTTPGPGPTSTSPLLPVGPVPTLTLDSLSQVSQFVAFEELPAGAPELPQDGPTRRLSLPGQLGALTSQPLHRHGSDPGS
Briefly: whole-cell patch clamp of native IK(erg) in GH3 cells; concentration-response and deactivation kinetics (KD […]). In kind it is cell-based. (The patch-clamp technique gives a direct electrical read-out from membranes.)

Turning to `CCCCCCCCCCCOC(=O)CCCCCN(CCO)CCCCCCCC(=O)OC(CCCCCCCC)CCCCCCCC` [SM-102, 1-octylnonyl 8-[(2-hydroxyethyl)[6-oxo-6-(undecyloxy)hexyl]amino]-octanoate], it took 108 µM to reach half-maximal inhibition (IC50).
